Measured values published in patent publication US20250313533A1, “QUINOLINE CARBOXYLIC ACID ESTER COMPOUND AND PREPARATION METHOD AND USE THEREOF” (priority 2019, published 2025).

Tests used:
[1] = system: fruit blotch in watermelons; assay: whole plant or invertebrate; conditions: read-out: efficacy against fruit blotch in watermelons
black shank in potatoes = assay: Living crops in vivo protective activity, potatoes (root irrigation); conditions: Solanum tuberosum, read-out: efficacy against black shank in potatoes; for pest or weed control at 5 ppm: dosage 5 ppm; for pest or weed control at 10 ppm: dosage 10 ppm
Procedure: Root irrigation was carried out on the potatoes for tests according to the designed concentration of the agents. The dosage for each plant was 200 mL and was kept consistent (also for the control). The black shank bacteria were inoculated on the second day after the application. The results were investigated according to the disease condition.

[2] = system: pathogenic bacteria causing fruit blotch in watermelons; assay: In vitro bactericidal activity, fruit blotch in watermelons; type: cell-based, acidovorax; conditions: read-out: inhibitory rate; for inhibition at 1 ppm: dosage 1 ppm; for inhibition at 5 ppm: dosage 5 ppm
Procedure: (§1) Under aseptic conditions, equal amounts of NB culture medium were added to test tubes, and fixed amounts of the sample solutions were pipetted into the above test tubes in an ascending order of concentrations, respectively. The mixtures were well mixed and added with equal amounts of a bacterial suspension in log phase.
(§2) Each step of the procedure was repeated 4 times. After mixing, the mixture samples were incubated in the dark in a shaking incubator at 25° C. The OD values were measured when the bacteria were in log phase.

bacterial blight in rice = assay: whole plant or invertebrate; conditions: Oryza sativa, read-out: efficacy against bacterial blight in rice
[3] = system: bacterial wilt in tobacco; assay: whole plant or invertebrate; conditions: Nicotiana tabacum, read-out: efficacy against bacterial wilt in tobacco
[4] = system: pathogenic bacteria causing black rot in Chinese cabbages; assay: In vitro bactericidal activity, black rot in Chinese cabbages; type: cell-based, xanthomonas; conditions: Xanthomonas, read-out: inhibitory rate; for inhibition at 1 ppm: dosage 1 ppm; for inhibition at 5 ppm: dosage 5 ppm
Procedure: as §1, §2

[5] = system: pathogenic bacteria causing black shank in potatoes; assay: In vitro bactericidal activity, black shank in potatoes; type: cell-based; conditions: read-out: inhibitory rate; for inhibition at 1 ppm: dosage 1 ppm; for inhibition at 5 ppm: dosage 5 ppm
Procedure: as §1, §2

[6] = system: pathogenic bacteria causing fire blight in pears; assay: In vitro bactericidal activity, fire blight in pears; type: cell-based, erwinia; conditions: Erwinia, read-out: inhibitory rate; for inhibition at 1 ppm: dosage 1 ppm; for inhibition at 5 ppm: dosage 5 ppm
Procedure: as §1, §2

[7] = system: pathogenic bacteria causing bacterial angular leaf spot in cucumbers; assay: In vitro bactericidal activity, bacterial angular leaf spot in cucumbers; type: cell-based, pseudomonas; conditions: read-out: inhibitory rate; for inhibition at 1 ppm: dosage 1 ppm; for inhibition at 5 ppm: dosage 5 ppm
Procedure: as §1, §2

[8] = system: pathogenic bacteria causing stem rot in sweet potatoes; assay: In vitro bactericidal activity, stem rot in sweet potatoes; type: cell-based, dikia; conditions: read-out: inhibitory rate; for inhibition at 1 ppm: dosage 1 ppm; for inhibition at 5 ppm: dosage 5 ppm
Procedure: as §1, §2

[9] = system: pathogenic bacteria causing bacterial wilt in tobacco; assay: whole plant or invertebrate; type: cell-based, ralstonia; conditions: read-out: inhibitory rate
[10] = system: soft rot in Chinese cabbages; assay: whole plant or invertebrate; conditions: 48 h, read-out: efficacy against soft rot in Chinese cabbages
[11] = system: stem rot in sweet potatoes; assay: whole plant or invertebrate; conditions: read-out: efficacy against stem rot in sweet potatoes
cucumber seedlings = assay: Safety for plant growth after application; type: in vivo; conditions: dosage 200 ppm
Excerpt: Taking indoor potted cucumber seedlings as an example, the influence of the compound disclosed herein on growth rate of plant height, chlorophyll content, leaf area, etc. of crops was mainly evaluated.
The results of safety and health-care effect of the compounds of the present disclosure on cucumber seedlings are shown in the following table 1: […]

[12] = system: pathogenic bacteria causing bacterial blight in rice; assay: whole plant or invertebrate; type: cell-based, xanthomonas; conditions: read-out: inhibitory rate
[13] = system: pathogenic bacteria causing bacterial wilt in cassava; assay: organism not typed; type: cell-based; conditions: read-out: inhibitory rate

Structure (SMILES) | pest or weed control at 5 ppm [1] | pest or weed control at 10 ppm [1] | pest or weed control at 5 ppm (black shank in potatoes) | pest or weed control at 10 ppm (black shank in potatoes) | inhibition at 5 ppm [2] | pest or weed control at 10 ppm (bacterial blight in rice) | pest or weed control at 5 ppm [3] | pest or weed control at 10 ppm [3] | inhibition at 5 ppm [4] | inhibition at 5 ppm [5] | inhibition at 5 ppm [6] | inhibition at 5 ppm [7] | inhibition at 5 ppm [8] | inhibition at 5 ppm [9] | pest or weed control at 10 ppm [10] | pest or weed control at 5 ppm [11] | pest or weed control at 10 ppm [11] | safety for plant growth (discoloration, necrosis, wilt, malformation) (cucumber seedlings) | inhibition at 5 ppm [12] | inhibition at 5 ppm [13] | other results
COCOC(=O)c1cn(C2CC2)c2ccc(F)cc2c1=O [Compound 1, methoxymethyl 1-cyclopropyl-6-fluoro-4-oxo-1,4-dihydroquinoline-3-carboxylate] | ≥ 90% | ≥ 90% | ≥ 80% | ≥ 90% | ≥ 90% | ≥ 90% | ≥ 90% | ≥ 90% | ≥ 90% | ≥ 90% | ≥ 90% | ≥ 90% | ≥ 90% | ≥ 90% | ≥ 90% | ≥ 90% | ≥ 90% | safe for plant growth | ≥ 90% | ≥ 90% | inhibition at 1 ppm [2]: ≥ 80%; pest or weed control at 5 ppm (bacterial blight in rice): ≥ 80%; inhibition at 1 ppm [4]: ≥ 80%; inhibition at 1 ppm [5]: ≥ 80%; inhibition at 1 ppm [6]: ≥ 80%; inhibition at 1 ppm [7]: ≥ 80%; inhibition at 1 ppm [8]: ≥ 80%; inhibition at 1 ppm [9]: ≥ 80%; pest or weed control at 5 ppm [10]: ≥ 80%; inhibition at 1 ppm [12]: ≥ 80%; inhibition at 1 ppm [13]: ≥ 80%
CCOCOC(=O)c1cn(C2CC2)c2ccc(F)cc2c1=O [Compound 2] | ≥ 90% | ≥ 90% | – | ≥ 90% | ≥ 90% | ≥ 90% | ≥ 90% | ≥ 90% | ≥ 90% | ≥ 90% | ≥ 90% | ≥ 90% | ≥ 90% | ≥ 90% | ≥ 90% | ≥ 90% | ≥ 90% | safe for plant growth | ≥ 90% | ≥ 90% | –
O=C(OCCCO)c1cn(C2CC2)c2ccc(F)cc2c1=O [Compound 18] | ≥ 90% | ≥ 90% | ≥ 80% | ≥ 90% | ≥ 90% | ≥ 90% | ≥ 90% | ≥ 90% | ≥ 90% | ≥ 90% | ≥ 90% | ≥ 90% | ≥ 90% | ≥ 90% | ≥ 90% | ≥ 90% | ≥ 90% | safe for plant growth | ≥ 90% | ≥ 90% | inhibition at 1 ppm [2]: ≥ 80%; pest or weed control at 5 ppm (bacterial blight in rice): ≥ 80%; inhibition at 1 ppm [4]: ≥ 80%; inhibition at 1 ppm [5]: ≥ 80%; inhibition at 1 ppm [6]: ≥ 80%; inhibition at 1 ppm [7]: ≥ 80%; inhibition at 1 ppm [8]: ≥ 80%; inhibition at 1 ppm [9]: ≥ 80%; pest or weed control at 5 ppm [10]: ≥ 80%; inhibition at 1 ppm [12]: ≥ 80%; inhibition at 1 ppm [13]: ≥ 80%
O=C(OCCO)c1cn(C2CC2)c2ccc(Cl)cc2c1=O [Compound 44] | ≥ 90% | ≥ 90% | ≥ 80% | ≥ 90% | ≥ 90% | ≥ 90% | ≥ 90% | ≥ 90% | ≥ 90% | ≥ 90% | ≥ 90% | ≥ 90% | ≥ 90% | ≥ 90% | ≥ 90% | ≥ 90% | ≥ 90% | safe for plant growth | ≥ 90% | ≥ 90% | inhibition at 1 ppm [2]: ≥ 80%; pest or weed control at 5 ppm (bacterial blight in rice): ≥ 80%; inhibition at 1 ppm [4]: ≥ 80%; inhibition at 1 ppm [5]: ≥ 80%; inhibition at 1 ppm [6]: ≥ 80%; inhibition at 1 ppm [7]: ≥ 80%; inhibition at 1 ppm [8]: ≥ 80%; inhibition at 1 ppm [9]: ≥ 80%; pest or weed control at 5 ppm [10]: ≥ 80%; inhibition at 1 ppm [12]: ≥ 80%; inhibition at 1 ppm [13]: ≥ 80%
COCCOC(=O)c1cn(C2CC2)c2ccc(Cl)cc2c1=O [Compound 45, 2-methoxyethyl 6-chloro-1-cyclopropyl-4-oxo-1,4-dihydroquinoline-3-carboxylate] | ≥ 90% | ≥ 90% | ≥ 80% | ≥ 90% | ≥ 90% | ≥ 90% | ≥ 90% | ≥ 90% | ≥ 90% | ≥ 90% | ≥ 90% | ≥ 90% | ≥ 90% | ≥ 90% | ≥ 90% | ≥ 90% | ≥ 90% | safe for plant growth | ≥ 90% | ≥ 90% | inhibition at 1 ppm [2]: ≥ 90%; pest or weed control at 5 ppm (bacterial blight in rice): ≥ 80%; inhibition at 1 ppm [4]: ≥ 90%; inhibition at 1 ppm [5]: ≥ 90%; inhibition at 1 ppm [6]: ≥ 90%; inhibition at 1 ppm [7]: ≥ 90%; inhibition at 1 ppm [8]: ≥ 90%; inhibition at 1 ppm [9]: ≥ 90%; pest or weed control at 5 ppm [10]: ≥ 80%; inhibition at 1 ppm [12]: ≥ 90%; inhibition at 1 ppm [13]: ≥ 90%
O=C(OCCOC1CC1)c1cn(C2CC2)c2cc(Cl)c(F)cc2c1=O [Compound 160] | ≥ 90% | ≥ 90% | ≥ 80% | ≥ 90% | ≥ 90% | ≥ 90% | ≥ 90% | ≥ 90% | ≥ 90% | ≥ 90% | ≥ 90% | ≥ 90% | ≥ 90% | ≥ 90% | ≥ 90% | ≥ 90% | ≥ 90% | safe for plant growth | ≥ 90% | ≥ 90% | inhibition at 1 ppm [2]: ≥ 80%; pest or weed control at 5 ppm (bacterial blight in rice): ≥ 80%; inhibition at 1 ppm [4]: ≥ 80%; inhibition at 1 ppm [5]: ≥ 80%; inhibition at 1 ppm [6]: ≥ 80%; inhibition at 1 ppm [7]: ≥ 80%; inhibition at 1 ppm [8]: ≥ 80%; inhibition at 1 ppm [9]: ≥ 80%; pest or weed control at 5 ppm [10]: ≥ 80%; inhibition at 1 ppm [12]: ≥ 80%; inhibition at 1 ppm [13]: ≥ 80%
O=C(OCCCCO)c1cn(C2CC2)c2cc(Cl)c(F)cc2c1=O [Compound 177] | ≥ 90% | ≥ 90% | ≥ 90% | ≥ 90% | ≥ 90% | ≥ 90% | ≥ 90% | ≥ 90% | ≥ 90% | ≥ 90% | ≥ 90% | ≥ 90% | ≥ 90% | ≥ 90% | ≥ 90% | ≥ 90% | ≥ 90% | safe for plant growth | ≥ 90% | ≥ 90% | inhibition at 1 ppm [2]: ≥ 90%; pest or weed control at 5 ppm (bacterial blight in rice): ≥ 80%; inhibition at 1 ppm [4]: ≥ 90%; inhibition at 1 ppm [5]: ≥ 90%; inhibition at 1 ppm [6]: ≥ 90%; inhibition at 1 ppm [7]: ≥ 90%; inhibition at 1 ppm [8]: ≥ 90%; inhibition at 1 ppm [9]: ≥ 90%; pest or weed control at 5 ppm [10]: ≥ 90%; inhibition at 1 ppm [12]: ≥ 80%; inhibition at 1 ppm [13]: ≥ 90%
